According to patent publication US10045990B2, “ERBB4 inhibitors and methods of use thereof” (Arizona Board of Regents on behalf of Arizona State …, priority 2015, dated 2018):

Legend:
[1] = target: T1, FGFR4 (Homo sapiens, UniProt P22455); assay: NAPPA array kinase autophosphorylation assay; format: biochemical; conditions: DMSO = 100
T1 construct: made in house; host or cells: human cell-free coupled transcription-translation (1-Step Human Coupled IVT), on the slide
Experimental: (§1) Protein microarrays were generated using NAPPA (Nucleic acid programmable protein array) methodology, which permits the use of freshly expressed proteins for functional assays (FIG. 1). In NAPPA, cDNAs coding for the target of interest are cloned into an expression vector, which generates a fusion (Halo Tag, GST, etc.) to the target, and spotted onto a glass slide. Then to each spot, a HeLa cell in vitro transcription-translation reagent is added, whereby the fusion gene is transcribed into mRNA and translated. The nascent proteins are captured to the slide with antibody to the fusion partner (i.e., HaloTag-ligand, α-GST antibody) that is spotted adjacent to the DNA during the manufacture of the array. This method allows for up to thousands of protein targets to be arrayed. NAPPA microarrays can be expressed using an in vitro transcription and translation system (IVTT), and the anti-tag antibody captures newly synthesized proteins. Following expression, the microarrays were treated with phosphatase to remove any phosphorylation that occurred during the expression of the proteins.
(§2) De-phosphorylated arrays were then incubated with kinase buffer containing various concentrations of ATP and/or kinase inhibitors. The kinase activity was measured as end point assay using anti-phopho tyrosine antibody linked to cy3 as the detecting agent (FIG. 2). The data was normalized using positive control features present in each array.
(§3) NAPPA kinase microarrays we generated with virtually all protein-tyrosine kinases from the human genome. The coding sequence for each tyrosine kinase was clone into an expression plasmid and immobilized on the microarray surface, with one protein kinase per feature. After the microarray was expressed, any phosphorylation that occurred during the expression step was removed by a treatment with lambda phosphatase.
(§4) Unphosphorylated microarrays were then incubated with a kinase buffer (25 mM Tris-HCl (pH 7.5), 5 mM beta-glycerophosphate, 2 mM dithiothreitol (DTT), 0.1 mM Na3VO4, 10 mM MgCl2) supplemented with […] and/or kinase inhibitors (concentration ranging from 0-10 uM). The kinase autophosphorylation activity was measured through the levels of phosphorylation present in each feature and was detected by phospho-tyrosine antibody. […] Staurosporine is a pan kinase inhibitor used as a control.
(§5) NAPPA arrays suitable for measuring the activity of protein kinases and evaluating the selectivity of kinase inhibitors were produced using a variation of the published protocol (Proteomics Clin Appl. 2013 June; 7(5-6):372-7.). Briefly, NAPPA printing mix was prepared with plasmid DNA coding for genes of interest, anti-flag antibody, cross-linker and poly-lysine. Samples were agitated for 90 minutes at 1200 rpm at RT and printed in quadruplicate in aminopropyltriethoxysilane coated glass slides.
(§6) Arrays were stored in an airtight container at room temperature until use.

[2] = target: T2, EPHA3 (Homo sapiens, UniProt P29320); assay: NAPPA array kinase autophosphorylation assay; format: biochemical; conditions: DMSO = 100
T2 construct: made in house; host or cells: human cell-free coupled transcription-translation (1-Step Human Coupled IVT), on the slide
T2 sequence (P29320 21-983): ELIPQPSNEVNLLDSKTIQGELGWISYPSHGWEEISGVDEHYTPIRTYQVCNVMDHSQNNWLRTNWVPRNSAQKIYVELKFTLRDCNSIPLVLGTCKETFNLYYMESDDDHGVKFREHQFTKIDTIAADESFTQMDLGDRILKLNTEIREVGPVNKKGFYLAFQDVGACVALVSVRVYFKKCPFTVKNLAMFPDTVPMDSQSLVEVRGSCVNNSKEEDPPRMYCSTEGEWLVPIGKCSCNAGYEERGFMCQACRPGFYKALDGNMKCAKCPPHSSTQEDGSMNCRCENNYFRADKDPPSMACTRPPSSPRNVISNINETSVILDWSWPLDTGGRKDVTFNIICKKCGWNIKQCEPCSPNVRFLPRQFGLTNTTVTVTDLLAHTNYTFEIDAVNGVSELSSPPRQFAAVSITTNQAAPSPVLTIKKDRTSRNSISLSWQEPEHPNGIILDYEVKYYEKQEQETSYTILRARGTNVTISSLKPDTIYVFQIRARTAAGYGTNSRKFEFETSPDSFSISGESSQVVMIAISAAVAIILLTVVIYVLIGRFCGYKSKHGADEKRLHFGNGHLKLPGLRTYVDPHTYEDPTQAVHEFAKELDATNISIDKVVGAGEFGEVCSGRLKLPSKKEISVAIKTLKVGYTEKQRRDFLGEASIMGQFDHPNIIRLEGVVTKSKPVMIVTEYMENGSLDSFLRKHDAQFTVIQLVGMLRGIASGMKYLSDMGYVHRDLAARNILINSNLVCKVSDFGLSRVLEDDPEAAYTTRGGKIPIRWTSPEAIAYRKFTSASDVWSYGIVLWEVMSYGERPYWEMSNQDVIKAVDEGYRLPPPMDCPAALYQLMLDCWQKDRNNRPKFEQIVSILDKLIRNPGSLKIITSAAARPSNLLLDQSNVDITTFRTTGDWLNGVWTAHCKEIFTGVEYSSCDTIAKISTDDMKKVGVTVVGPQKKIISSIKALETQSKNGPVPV
Experimental: as §1, §2, §3, §4, §5, §6

[3] = target: T3, HCK (Homo sapiens, UniProt P08631); assay: NAPPA array kinase autophosphorylation assay; format: biochemical; conditions: DMSO = 100
T3 construct: made in house; host or cells: human cell-free coupled transcription-translation (1-Step Human Coupled IVT), on the slide
T3 sequence (P08631 whole entry): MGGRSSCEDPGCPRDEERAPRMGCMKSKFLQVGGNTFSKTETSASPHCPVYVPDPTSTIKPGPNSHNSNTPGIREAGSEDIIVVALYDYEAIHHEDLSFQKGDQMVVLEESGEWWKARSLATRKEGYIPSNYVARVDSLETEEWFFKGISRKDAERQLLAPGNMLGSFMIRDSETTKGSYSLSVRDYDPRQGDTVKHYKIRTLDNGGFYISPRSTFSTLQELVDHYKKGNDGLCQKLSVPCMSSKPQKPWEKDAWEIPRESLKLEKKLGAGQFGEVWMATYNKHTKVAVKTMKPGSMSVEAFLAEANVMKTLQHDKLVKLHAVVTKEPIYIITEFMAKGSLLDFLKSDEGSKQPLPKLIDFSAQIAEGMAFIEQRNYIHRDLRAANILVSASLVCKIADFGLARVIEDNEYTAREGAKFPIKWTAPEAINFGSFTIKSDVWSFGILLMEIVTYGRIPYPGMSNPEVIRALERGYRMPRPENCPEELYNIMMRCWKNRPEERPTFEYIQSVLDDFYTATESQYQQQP
Experimental: as §1, §2, §3, §4, §5, §6

[4] = target: T4, FGFR1 (Homo sapiens, UniProt P11362); assay: NAPPA array kinase autophosphorylation assay; format: biochemical; conditions: DMSO = 100
T4 construct: made in house; host or cells: human cell-free coupled transcription-translation (1-Step Human Coupled IVT), on the slide
T4 sequence (P11362 22-822): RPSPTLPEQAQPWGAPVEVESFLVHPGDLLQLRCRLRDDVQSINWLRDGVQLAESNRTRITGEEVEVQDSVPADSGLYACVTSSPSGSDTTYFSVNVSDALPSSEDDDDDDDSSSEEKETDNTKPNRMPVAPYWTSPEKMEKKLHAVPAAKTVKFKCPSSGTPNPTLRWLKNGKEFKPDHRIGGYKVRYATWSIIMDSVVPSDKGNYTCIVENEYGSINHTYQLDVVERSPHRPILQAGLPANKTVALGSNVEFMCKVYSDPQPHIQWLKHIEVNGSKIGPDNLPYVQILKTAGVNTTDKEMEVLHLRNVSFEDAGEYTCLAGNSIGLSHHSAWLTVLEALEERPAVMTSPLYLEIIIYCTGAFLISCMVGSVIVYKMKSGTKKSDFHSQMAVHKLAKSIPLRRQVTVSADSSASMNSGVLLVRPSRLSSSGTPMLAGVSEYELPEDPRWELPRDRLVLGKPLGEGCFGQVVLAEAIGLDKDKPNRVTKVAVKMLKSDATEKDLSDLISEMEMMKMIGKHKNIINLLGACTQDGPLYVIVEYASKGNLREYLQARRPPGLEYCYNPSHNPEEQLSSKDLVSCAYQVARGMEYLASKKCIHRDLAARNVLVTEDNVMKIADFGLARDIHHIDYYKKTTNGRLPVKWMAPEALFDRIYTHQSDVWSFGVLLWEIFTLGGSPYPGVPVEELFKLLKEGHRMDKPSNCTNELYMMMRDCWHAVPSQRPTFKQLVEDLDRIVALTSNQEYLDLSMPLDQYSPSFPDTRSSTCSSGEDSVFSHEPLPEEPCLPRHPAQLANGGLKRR
Experimental: as §1, §2, §3, §4, §5, §6

[5] = target: T5, EPHA7 (Homo sapiens, UniProt Q15375); assay: NAPPA array kinase autophosphorylation assay; format: biochemical; conditions: DMSO = 100
T5 construct: made in house; host or cells: human cell-free coupled transcription-translation (1-Step Human Coupled IVT), on the slide
T5 sequence (Q15375 28-998): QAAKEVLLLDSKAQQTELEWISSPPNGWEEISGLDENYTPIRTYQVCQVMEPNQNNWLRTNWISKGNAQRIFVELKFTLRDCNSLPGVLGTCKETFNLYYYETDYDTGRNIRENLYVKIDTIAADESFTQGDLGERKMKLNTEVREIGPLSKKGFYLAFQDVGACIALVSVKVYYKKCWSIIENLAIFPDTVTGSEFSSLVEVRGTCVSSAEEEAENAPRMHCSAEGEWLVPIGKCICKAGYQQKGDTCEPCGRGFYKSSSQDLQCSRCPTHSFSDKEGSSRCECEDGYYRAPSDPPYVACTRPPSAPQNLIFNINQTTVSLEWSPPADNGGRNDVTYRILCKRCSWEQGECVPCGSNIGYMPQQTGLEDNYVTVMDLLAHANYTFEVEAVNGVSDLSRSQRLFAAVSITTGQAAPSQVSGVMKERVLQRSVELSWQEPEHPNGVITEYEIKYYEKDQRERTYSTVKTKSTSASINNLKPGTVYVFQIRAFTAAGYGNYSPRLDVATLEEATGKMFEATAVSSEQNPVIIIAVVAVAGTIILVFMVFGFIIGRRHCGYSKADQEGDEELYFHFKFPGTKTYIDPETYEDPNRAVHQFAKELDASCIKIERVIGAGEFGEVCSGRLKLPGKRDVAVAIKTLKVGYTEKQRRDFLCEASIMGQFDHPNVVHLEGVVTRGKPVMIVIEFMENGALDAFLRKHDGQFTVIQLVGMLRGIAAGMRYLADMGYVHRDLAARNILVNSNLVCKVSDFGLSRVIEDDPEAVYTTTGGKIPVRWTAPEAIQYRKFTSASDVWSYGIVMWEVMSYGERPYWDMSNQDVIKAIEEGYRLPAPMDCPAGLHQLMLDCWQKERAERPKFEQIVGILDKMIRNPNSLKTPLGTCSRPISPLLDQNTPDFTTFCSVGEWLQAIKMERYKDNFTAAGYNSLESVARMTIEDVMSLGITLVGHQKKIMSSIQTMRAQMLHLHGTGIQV
Experimental: as §1, §2, §3, §4, §5, §6

[6] = test system: H522; assay: cell growth / viable cell count in ERBB4-overexpressing, BTK-negative cell line; format: cell-based, human
[7] = test system: 1321N1; assay: as above; format: cell-based, human
[8] = test system: OVSAHO; conditions: 1 uM, 7 days, Trypan blue exclusion, vs DMSO
[9] = target: T6, YES1 (Homo sapiens, UniProt P07947); assay: NAPPA array kinase autophosphorylation assay; format: biochemical; conditions: DMSO = 100
T6 construct: made in house; host or cells: human cell-free coupled transcription-translation (1-Step Human Coupled IVT), on the slide
T6 sequence (P07947 whole entry): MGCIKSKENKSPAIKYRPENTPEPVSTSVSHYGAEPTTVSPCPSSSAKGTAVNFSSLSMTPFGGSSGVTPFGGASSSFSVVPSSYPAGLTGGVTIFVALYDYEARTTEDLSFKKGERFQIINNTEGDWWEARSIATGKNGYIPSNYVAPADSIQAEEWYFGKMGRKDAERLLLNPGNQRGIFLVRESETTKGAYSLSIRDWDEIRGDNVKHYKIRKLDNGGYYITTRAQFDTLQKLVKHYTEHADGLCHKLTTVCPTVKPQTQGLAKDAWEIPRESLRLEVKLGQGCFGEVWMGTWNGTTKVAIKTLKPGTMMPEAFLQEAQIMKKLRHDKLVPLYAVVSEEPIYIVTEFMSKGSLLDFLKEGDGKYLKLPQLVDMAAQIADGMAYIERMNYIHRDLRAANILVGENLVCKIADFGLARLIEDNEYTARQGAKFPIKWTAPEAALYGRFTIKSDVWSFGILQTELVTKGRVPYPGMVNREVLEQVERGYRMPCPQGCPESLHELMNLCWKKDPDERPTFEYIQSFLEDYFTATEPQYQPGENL

[10] = target: ERBB4 (Homo sapiens, UniProt Q15303); assay: radioactive kinase assay with purified kinase; format: biochemical; conditions: 1 uM, radioactive ATP (FIG. 3A)
Experimental: First, radioactive kinase assays were performed with purified protein kinases incubated with radioactive ATP and increasing concentrations of kinase inhibitors. The kinase activity was measured through the levels of radioactive phosphorylation present in each kinase.

[11] = test system: OVKATE; conditions: 1 uM, 7 days, Trypan blue exclusion, vs DMSO
[12] = test system: COV434; conditions: 1 uM, 7 days, Trypan blue exclusion, vs DMSO
[13] = test system: HEC59; assay: cell growth / viable cell count in ERBB4-overexpressing, BTK-negative cell line; format: cell-based, human; parameters: % Survival: dose or concentration left out as unconfirmed
[14] = test system: responsive cell lines; assay: cell based assays, responsive cell lines; parameters: species or system human
[15] = test system: COV318; assay: cell growth / viable cell count in ERBB4-overexpressing, BTK-negative cell line; format: cell-based, human
[16] = test system: H661; assay: as above; format: cell-based, human
[17] = target: T6, YES1; assay: NAPPA array kinase autophosphorylation assay; format: biochemical; conditions: Yes1 (second entry), DMSO = 100
[18] = 0, 1 nM, 10 nM, 100 nM, 1 uM or 10 uM for 7 days
[19] = 1 uM, 7 days, Trypan blue exclusion, vs DMSO
[20] = percentage of viable cells after a 24-hour treatment of 1 nM ibrutinib

T1 sequence (P22455 22-802): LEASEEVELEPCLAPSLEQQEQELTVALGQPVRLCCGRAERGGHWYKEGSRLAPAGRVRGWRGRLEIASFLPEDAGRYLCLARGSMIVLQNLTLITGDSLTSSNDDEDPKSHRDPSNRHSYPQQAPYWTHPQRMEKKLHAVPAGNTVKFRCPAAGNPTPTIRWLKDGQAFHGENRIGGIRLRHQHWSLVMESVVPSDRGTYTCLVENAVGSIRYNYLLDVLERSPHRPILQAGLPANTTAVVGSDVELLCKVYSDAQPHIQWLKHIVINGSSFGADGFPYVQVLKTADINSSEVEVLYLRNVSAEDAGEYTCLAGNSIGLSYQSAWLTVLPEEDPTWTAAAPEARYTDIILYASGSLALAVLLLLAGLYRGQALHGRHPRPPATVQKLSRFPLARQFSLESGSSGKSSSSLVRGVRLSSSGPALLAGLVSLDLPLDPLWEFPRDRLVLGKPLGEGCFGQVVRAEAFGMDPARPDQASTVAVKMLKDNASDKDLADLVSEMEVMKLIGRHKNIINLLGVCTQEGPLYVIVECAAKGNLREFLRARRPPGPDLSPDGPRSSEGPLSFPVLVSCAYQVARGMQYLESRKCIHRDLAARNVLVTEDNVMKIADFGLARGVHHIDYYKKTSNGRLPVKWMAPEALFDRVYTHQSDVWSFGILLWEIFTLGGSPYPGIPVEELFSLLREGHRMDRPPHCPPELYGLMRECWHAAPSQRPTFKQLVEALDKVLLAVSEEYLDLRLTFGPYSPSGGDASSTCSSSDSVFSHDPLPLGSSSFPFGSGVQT

## Ibrutinib
[1]; 0.1 uM Ibrutinib
  kinase activity (%): 81.5%
[1]; 1 uM Ibrutinib
  kinase activity (%): 99.1%
[2]; 0.1 uM Ibrutinib
  kinase activity (%): 89.1%
[2]; 1 uM Ibrutinib
  kinase activity (%): 101.3%
[3]; 0.1 uM Ibrutinib
  kinase activity (%): 102.1%
[3]; 1 uM Ibrutinib
  kinase activity (%): 105.0%
[4]; 0.1 uM Ibrutinib
  kinase activity (%): 98.8%
[4]; 1 uM Ibrutinib
  kinase activity (%): 105.8%
[5]; 0.1 uM Ibrutinib
  kinase activity (%): 92.3%
[5]; 1 uM Ibrutinib
  kinase activity (%): 94.9%
[6]; [18]
  sensitivity of cell line: very sensitive
[6]; [19]
  growth inhibition rate: 60%
[6]; [20]
  % Survival: 41.0%
[7]; [18]
  sensitivity of cell line: apparently resistant
[7]; [19]
  growth inhibition rate: 10%
[7]; [20]
  % Survival: 89.7%
[8]
  growth inhibition rate: 37%
[9]; 0.1 uM Ibrutinib
  kinase activity (%): 99.3%
[9]; 1 uM Ibrutinib
  kinase activity (%): 90.9%
[10]
  activity inhibited: more than 80%
[11]
  growth inhibition rate: 45%
[12]
  growth inhibition rate: 15%
[13]; HEC59, 1 uM, 7 days, Trypan blue exclusion, vs DMSO
  growth inhibition rate: 31%
[13]; HEC59, percentage of viable cells
  % Survival: 68.8%
[13]; Hec59, 0, 1 nM, 10 nM, 100 nM, 1 uM or 10 uM for 7 days
  sensitivity of cell line: apparently resistant
[14]
  inhibition in the responsive cell lines: 60-75%
[15]; [18]
  sensitivity of cell line: apparently resistant
[15]; [19]
  growth inhibition rate: 8%
[15]; [20]
  % Survival: 91.5%
[16]; [18]
  sensitivity of cell line: very sensitive
[16]; [19]
  growth inhibition rate: 72%
[16]; [20]
  % Survival: 28.2%
[17]; 0.1 uM Ibrutinib
  kinase activity (%): 101.6%
[17]; 1 uM Ibrutinib
  kinase activity (%): 97.6%
